Where two headings read alike, the source gives them in different places.
Legend:
[1] = molecular target: T1, post-synaptic α-adrenoceptor (α1) (Rattus norvegicus, UniProt P43140); assay: Post-synaptic α-adrenoceptor blockade (epididymal portion of rat vas deferens, contractile effects of phenylephrine); assay type: cell-based; details: phenylephrine agonist, number of determinations in parentheses; for Kb: for 1-ethyl b174 = lot No. 1, b175 = lot No. 2, read-out: pA2 (α1) (converted)
T1 construct: from tissue; host or cells: rat isolated vas deferens, epididymal portion
T1 sequence (P43140 1-466): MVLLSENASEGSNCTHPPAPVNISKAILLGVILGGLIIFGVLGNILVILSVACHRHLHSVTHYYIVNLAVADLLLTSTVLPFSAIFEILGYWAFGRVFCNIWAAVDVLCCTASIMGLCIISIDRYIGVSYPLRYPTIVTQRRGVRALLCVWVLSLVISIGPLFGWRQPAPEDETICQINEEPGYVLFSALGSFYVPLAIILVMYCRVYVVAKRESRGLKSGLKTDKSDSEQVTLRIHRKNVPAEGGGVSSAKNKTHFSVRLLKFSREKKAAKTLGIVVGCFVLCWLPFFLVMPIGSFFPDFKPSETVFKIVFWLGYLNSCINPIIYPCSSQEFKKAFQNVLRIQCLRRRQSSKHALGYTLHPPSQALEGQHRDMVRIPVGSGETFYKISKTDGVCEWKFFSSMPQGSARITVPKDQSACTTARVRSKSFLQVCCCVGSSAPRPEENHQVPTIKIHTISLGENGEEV
Excerpt: The contralateral portions served as control tissues.
J. Pharmacol.; 14: 48-58 (1959).

[2] = LD50, intraperitoneal injection in mice; details: mouse, in vivo, ip, per body weight
blood platelets = assay: Platelet aggregation inhibition; assay type: cell-based; details: hydrochloride salt; for inhibition at 500 µM: at 5 × 10^-4 M, read-out: inhibition From Maximum Height (ΔT)
Experimental: Blood platelets are collected in the standard manner, and incubated in an Aggregation Module Incubator-Cuvette in the presence of either the inhibitor to be tested, or without said inhibitor as a control. The aggregation of the platelets is observed after the addition of an inducer, and the samples are evaluated for the presence of a lag period and the slope of the aggregation curve, as well as the maximum height of the aggregation curve in comparison to the control.

[3] = test system: spontaneously hypertensive rats; assay: Antihypertensive activity in spontaneously hypertensive rats; assay type: in vivo, rat; details: 50 mg per kg orally on two consecutive mornings; hydrochloride salt; measured during four hours after second dose
Experimental: Spontaneously hypertensive rats were divided into groups of four animals each with approximately equal mean systolic blood pressures. One such group serves as a control against another group which is given the compound to be tested. On two consecutive mornings, the test group was dosed orally with 50 mg per kg of 1-ethyl-2-(1,4-benzodioxane-2-ylmethyl)imidazole as a hydrochloride salt which was suspended in a vehicle of water and tween. The control group received vehicle only. Immediately after dosing on the second day, the rats were put in restrainers and placed in a heated chamber at 30° C. for four hours.
During this time, systolic blood pressures were determined at four consecutive 20 second intervals using photoelectric transducers. The mean systolic blood pressure of each rat (as an average of these four measurements) was recorded. The results are given as percentage lowering of the mean systolic blood pressure in the experimental as compared with the control group.

Cn1ccnc1CC1COc2ccccc2O1 (stereo not drawn) [1-methyl-2-(1,4-benzodioxan-2-ylmethyl)imidazole]
Kb [1]: 50.1 µM

c1ccc2c(c1)OCC(Cc1ncc[nH]1)O2 (stereo not drawn) [2-(1,4-benzodioxan-2-ylmethyl)imidazole]
Kb [1]: 0.794 µM
LD50 [2]: 70 mg/kg

CCCn1ccnc1CC1COc2ccccc2O1 (stereo not drawn) [1-propyl-2-(1,4-benzodioxan-2-ylmethyl)imidazole]
Kb [1]: 63.1 µM
LD50 [2]: 200 mg/kg

CCn1ccnc1CC1COc2ccccc2O1 (stereo not drawn) [1-ethyl-2-(1,4-benzodioxan-2-ylmethyl)imidazole]
pA2 (α1) ([1]; for 1-ethyl b174 = lot No. 1, b175 = lot No. 2): 4.00
Kb [1]: 100 µM
LD50 [2]: 200 mg/kg

CCn1ccnc1CC1COc2ccccc2O1 (stereo not drawn) [1-ethyl-2-(1,4-benzodioxane-2-ylmethyl)imidazole]
inhibition at 1000 µM (blood platelets; inducer ADP (5 × 10^-6 M), at 10^-3 M, read-out: inhibition From Slope (Rate)): 20%
IC50 (blood platelets; inducer ADP (5 × 10^-6 M), read-out: IC50 From Maximum Height (ΔT)): 1000 µM
IC50 (blood platelets; inducer arachidonic acid (2.5 × 10^-4 M), read-out: IC50 From Maximum Height (ΔT)): 190 µM
IC50 (blood platelets; inducer arachidonic acid (2.5 × 10^-4 M), read-out: IC50 From Slope (Rate)): 310 µM
inhibition at 500 µM (blood platelets; inducer collagen (30&)): 27%
IC50 (blood platelets; inducer collagen (30&), read-out: IC50 From Slope (Rate)): 450 µM
inhibition at 50 µM (blood platelets; inducer epinephrine (5 × 10^-6 M), 5 × 10^-5 M, read-out: inhibition From Slope (Rate)): 99%
inhibition at 500 µM (blood platelets; inducer epinephrine (5 × 10^-6 M)): 5%
lowering of the mean systolic blood pressure compared with control group [3]: 29%

c1ccc2c(c1)OCC(CCc1ncc[nH]1)O2 (stereo not drawn) [2-(2-(1,4-benzodioxan-2-yl)ethyl)imidazole]
Kb [1]: 0.617 µM
